Source: patent EP0520604A2, “Monoclonal antibody against pentacyclic oleanan-type triterpene and use thereof” (MINOPHAGEN PHARMACEUTICAL COMPANY, priority 1991, dated 1992)

Assays:
Experiment in all cases: Inhibition ELISA (cross reactivity), solidified GA-BSA conjugate as antigen
Format in all cases: binding, mouse
[1] = system: monoclonal antibody produced by a strain GA2-20-1; settings: for 50 % inhibition concentration (IC 50): monoclonal antibody 2-20-1, 50-fold diluted, from inhibition curves; for cross reactivity: monoclonal antibody 2-20-1, values in parenthesis, relative to (GA)
Method: (§1) Inhibition ELISA comprises sequentially incubating the solidified GA-BSA conjugate with glycyrrhetic acid or a sample together with the antibody, bonding the enzyme-labeled anti-mouse IgG to the resulting incubation mixture, thereby measuring the enzyme activity. The antibody bonded to the antigen contained in the sample cannot be bonded to the solidified antigen, and therefore, the amount of the enzyme bonded is reduced. By measuring the enzyme activity, glycyrrhetic acid contained in the sample can be measured. The amount of glycyrrhizin can be determined by measuring glycyrrhetic acid generated by the acid hydrolysis of glycyrrhizin.
(§2) According to direct ELISA, the antibody solution is divided into each well; according to inhibition ELISA, glycyrrhetic acid or a sample solution is divided into each well together with the antibody solution. After left to stand at ambient temperature, the wells are washed before the division of an enzyme-labeled anti-mouse IgG solution, and then the wells are left to stand at ambient temperature.
(§3) After washing each well again, a solution of a dye which develops color on enzyme reaction is divided into the washed wells for reaction. After the completion of the reaction, the absorbance of each well at 405 nm is measured with an immunoreader. By comparing the results with the values obtained from known amounts of the antigen, glycyrrhetic acid can be assayed.
(§4) The cross reactivity to the following individual compounds was examined according to inhibition ELISA. • (1) 18α H-Olean-11-oxo-12ene-30-oic acid • (2) Olean-12ene-3,11-dioxo-30-oic acid • (3) Olean-12ene-3α-hydroxy-11-oxo-30-oic- acid • (4) Olean-12ene-11-oxo-3β, 30-diol • (5) Cholic acid • (6) Deoxy cholic acid • (7) Glycyrrhetlc acid (GA) • (8) Glycyrrhizin (GL) These are illustrated as compounds (1), (2), (3), (4), (5), (6), (GA) and (GL).
(§5) One hundred µℓ each of the GA-BSA solution (10 µg/mℓ) was divided in the wells of a 96-well microtiter plate and left to stand overnight at 4° C. After removing the antigen solution, 100 µℓ each of the BSA-PBS was divided and left to stand at 37° C for one hour.
(§6) The 50-fold diluted antibody and each of the compounds were individually adjusted to 10 ng/mℓ, 100 ng/mℓ and 1000 ng/mℓ. Fifty µℓ each of the adjusted solution was divided in each well. After left to stand at ambient temperature for 30 minutes, the wells were washed three times with the PBS containing 0.05 % Tween 20, and washed twice with PBS, followed by the division of the 5000-fold dilution of goat anti-mouse IgG labeled with alkaline phosphatase, and left to stand at room temperature for 30 minutes.
(§7) After each well was washed following the same procedure described above, 100 µℓ each of 1M diethanolamine buffer (pH 9.8) containing p-nitrophenyl phosphate at a concentration of 1 mg/mℓ was divided and reacted at 37° C for 30 minutes. After the completion of the reaction, 2M sodium hydroxide was added. Then, the absorbance at 405 nm of each well was measured with an immunoreader.
(§8) From the inhibition curves obtained, 50 % inhibition concentration (IC 50) of each compound was determined. The antibody generated by the strain GA2-20-1, among the three strains, had the highest specificity.

[2] = system: monoclonal antibody produced by a strain GA2-20-3; settings: for 50 % inhibition concentration (IC 50): monoclonal antibody 2-20-3, 50-fold diluted, from inhibition curves; for cross reactivity: monoclonal antibody 2-20-3, values in parenthesis, relative to (GA)
Method: as §1, §2, §3, §4, §5, §6, §7, §8

[3] = system: monoclonal antibody produced by a strain GA2-20-6; settings: for 50 % inhibition concentration (IC 50): monoclonal antibody 2-20-6, 50-fold diluted, from inhibition curves; for cross reactivity: monoclonal antibody 2-20-6, values in parenthesis, relative to (GA)
Method: as §1, §2, §3, §4, §5, §6, §7, §8

Compound | 50 % inhibition concentration (IC 50) [1] | 50 % inhibition concentration (IC 50) [2] | 50 % inhibition concentration (IC 50) [3] | cross reactivity [1] | cross reactivity [2] | cross reactivity [3]
CC1(C)C(=O)CC[C@]2(C)[C@H]3C(=O)C=C4[C@@H]5C[C@@](C)(C(=O)O)CC[C@]5(C)CC[C@@]4(C)[C@]3(C)CC[C@@H]12 [(2), Olean-12ene-3,11-dioxo-30-oic acid] | 0.8317 mg/L | 0.9571 mg/L | >1 mg/L | ( 1.9) % | ( 3.4) % | (<1.6) %
CC1(C)[C@@H](O)CC[C@]2(C)[C@H]3C(=O)C=C4[C@@H]5C[C@@](C)(CO)CC[C@]5(C)CC[C@@]4(C)[C@]3(C)CC[C@@H]12 [(4), Olean-12ene-11-oxo-3β, 30-diol] | 0.4372 mg/L | 0.4767 mg/L | 0.4254 mg/L | ( 3.6) % | ( 6.9) % | (10.4) %
C[C@H](CCC(=O)O)[C@H]1CC[C@H]2[C@@H]3[C@H](O)C[C@@H]4C[C@H](O)CC[C@]4(C)[C@H]3C[C@H](O)[C@]12C [compound (5), Cholic acid] | >1 mg/L | >1 mg/L | >1 mg/L | (<1.6) % | (<1.6) % | (<1.6) %
Glycyrrhetlc acid [(GA)] | 0.0159 mg/L | 0.0329 mg/L | 0.0444 mg/L |  |  | 

The next lines start with results.

50 % inhibition concentration (IC 50) [1] | 50 % inhibition concentration (IC 50) [2] | 50 % inhibition concentration (IC 50) [3] | Compound | cross reactivity [1] | cross reactivity [2] | cross reactivity [3]
0.0876 mg/L | 0.0878 mg/L | 0.0975 mg/L | 18α H-Olean-11-oxo-12ene-30-oic acid [compound (1)] | (18.2) % | (37.5) % | (45.5) %
0.6954 mg/L | 0.6765 mg/L | 0.7933 mg/L | CC1(C)[C@H](O)CC[C@]2(C)[C@H]3C(=O)C=C4[C@@H]5C[C@@](C)(C(=O)O)CC[C@]5(C)CC[C@@]4(C)[C@]3(C)CC[C@@H]12 [(3), Olean-12ene-3α-hydroxy-11-oxo-30-oic-acid] | ( 2.3) % | ( 4.9) % | ( 5.6) %
>1 mg/L | >1 mg/L | >1 mg/L | CC1(C)[C@@H](O[C@H]2O[C@H](C(=O)O)[C@@H](O)[C@H](O)[C@H]2O[C@@H]2O[C@H](C(=O)O)[C@@H](O)[C@H](O)[C@H]2O)CC[C@]2(C)[C@H]3C(=O)C=C4[C@@H]5C[C@@](C)(C(=O)O)CC[C@]5(C)CC[C@@]4(C)[C@]3(C)CC[C@@H]12 [(GL), Glycyrrhizin] | (<1.6) % | (<1.6) % | (<1.6) %
